We go through eleven molecules from ChEMBL document CHEMBL1201862, “PubChem BioAssay data set” (2004).

Some test systems named below: SK-MEL-28; A498; NCI-H23; IGROV-1; HL-60; HCC 2998; HCT-116; HT-29; TK-10; MOLT-4; SK-OV-3; CAKI-1; A549; UACC-62; HOP-62; UO-31; OVCAR-4; 786-0; OVCAR-3; LOX IMVI.
Test in all cases: NCI-60 cell line screen, 48 h

Counter-ions that a name gives are not always drawn.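 Protocol summary: plate cells (96-well), add compound at 5 concentrations, incubate 48 h, interpolate endpoints linearly. At the GI50, growth is halved.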 The source made the active and inactive calls. No stated cut-off is given here; in the data, active = GI50 up to about 1.1 µM and inactive = higher. A value given as a limit tells only on which side of the number the result lay.

On to `COc1cc(/C=N/c2nncs2)ccc1O`, for which the GI50 with SK-MEL-28, with A498, in the assay on NCI-H23, in the assay with IGROV-1, in the assay with HL-60 and in the assay with HCC 2998 was > 100 µM (inactive) each time. Besides, the GI50 in the assay with HCT-116, with HT-29, with TK-10, in the assay on MOLT-4, in the assay with SK-OV-3 and in the assay on CAKI-1 was > 100 µM (inactive) each time. Moreover, the GI50 in the assay on A549, with UACC-62, with HOP-62, in the assay on UO-31, with OVCAR-4 and in the assay on 786-0 was > 100 µM (inactive) in each case.
As to `CC(C)=CCc1c(O)c(CC=C(C)C)c2oc3c(c(=O)c2c1O)C(C=C(C)C)Oc1cc(O)ccc1-3` (stereo unspecified), the GI50 is 7.53 µM (inactive) with SK-MEL-28; 16.2 µM (inactive) in the assay with A498; 4.67 µM (inactive) in the assay on NCI-H23; 7.53 µM (inactive) in the assay with IGROV-1; 5.85 µM (inactive) in the assay with HL-60; 3.74 µM (inactive) in the assay with HCT-116. Also, the GI50 is 10.3 µM (inactive) in the assay on HT-29; 4.17 µM (inactive) in the assay with TK-10; 3.84 µM (inactive) in the assay with MOLT-4; 4.18 µM (inactive) in the assay on OVCAR-3; 14.7 µM (inactive) in the assay on SK-OV-3; 5.87 µM (inactive) with CAKI-1. Moreover, the GI50 with LOX IMVI was 5.15 µM (inactive); in the assay on A549 it was 5.2 µM (inactive); with UACC-62 it was 6.37 µM (inactive); in the assay with HOP-62 it was 12.5 µM (inactive); in the assay on UO-31, 4.19 µM (inactive); in the assay on OVCAR-4 it was 7.14 µM (inactive). Further, the GI50 in the assay on 786-0 is 6.98 µM (inactive).
With `O=C(c1cc(O)ccc1O)c1ccccc1C(Cl)(Cl)Cl`, the GI50 is 82.8 µM (inactive) in the assay with A498; 58.2 µM (inactive) with NCI-H23; > 100 µM (inactive) in the assay with IGROV-1; 28.6 µM (inactive) in the assay with HL-60; > 100 µM (inactive) with HCC 2998; > 100 µM (inactive) in the assay on HCT-116. Moreover, the GI50 in the assay on HT-29 was > 100 µM (inactive); with TK-10, > 100 µM (inactive); with MOLT-4, 33 µM (inactive); with OVCAR-3 it was 79.1 µM (inactive); in the assay on SK-OV-3, > 100 µM (inactive); with CAKI-1, 93.1 µM (inactive). Moreover, the GI50 in the assay with A549 is > 100 µM (inactive); in the assay with UACC-62, 71.6 µM (inactive); with HOP-62, > 100 µM (inactive); with UO-31, 41.9 µM (inactive); with OVCAR-4, 68.5 µM (inactive); with 786-0 it was > 100 µM (inactive).
Regarding `COC(=O)c1c(OC)cccc1C(=O)O`, the GI50 with A498, with NCI-H23, in the assay with IGROV-1, in the assay with HL-60, with HCC 2998 and in the assay with HCT-116 was > 100 µM (inactive) throughout. The GI50 with HT-29, in the assay with TK-10, with MOLT-4, in the assay with OVCAR-3, with SK-OV-3 and with CAKI-1 was > 100 µM (inactive) each time. Also, the GI50 in the assay on A549, with UACC-62, with HOP-62, with UO-31, with OVCAR-4 and with 786-0 was > 100 µM (inactive) throughout.
As for `COc1ccc2c3ccc4c(c3n(C)c2c1)C(=O)c1ccccc1C4=O`, the GI50 in the assay with SK-MEL-28 is > 100 µM (inactive); in the assay with A498 it was 48.4 µM (inactive); in the assay with NCI-H23, > 100 µM (inactive); with IGROV-1, > 100 µM (inactive); with HL-60, > 100 µM (inactive); in the assay on HCC 2998, > 100 µM (inactive). In addition, the GI50 in the assay with HCT-116 was 30.1 µM (inactive); in the assay with HT-29 it was 11.7 µM (inactive); in the assay on MOLT-4, > 100 µM (inactive); in the assay on SK-OV-3, 21.6 µM (inactive); with A549, 74.5 µM (inactive); with UACC-62, > 100 µM (inactive). Further, the GI50 with HOP-62 is > 100 µM (inactive); in the assay with UO-31, > 100 µM (inactive); in the assay on OVCAR-4 it was 17.8 µM (inactive); in the assay with 786-0, 13.4 µM (inactive).
As to `CCCNCc1nc2ccc(Br)cc2c(=O)n1CCC`, the GI50 with SK-MEL-28 was 15.3 µM (inactive); with A498 it was 18.1 µM (inactive); in the assay on NCI-H23 it was 13.4 µM (inactive); in the assay with IGROV-1 it was 15.6 µM (inactive); in the assay with HL-60, 6.53 µM (inactive); in the assay with HCT-116, 9.98 µM (inactive). Moreover, the GI50 with HT-29 was 15.1 µM (inactive); in the assay on MOLT-4, 7.8 µM (inactive); in the assay with OVCAR-3, 18.4 µM (inactive); in the assay on SK-OV-3, 18.7 µM (inactive); with LOX IMVI, 4.93 µM (inactive); in the assay on A549 it was 16.6 µM (inactive). Moreover, the GI50 in the assay with UACC-62 was 6.93 µM (inactive); with HOP-62, 22 µM (inactive); in the assay with UO-31, 16.2 µM (inactive); in the assay with OVCAR-4 it was 14.6 µM (inactive); in the assay with 786-0, 15.8 µM (inactive).
With `CCN(CC)CCCNc1ccc([N+](=O)[O-])c2nc3ccccc3c(N)c12`, the GI50 in the assay with SK-MEL-28 was 3.98 µM (inactive); in the assay with A498 it was 2.32 µM (inactive); with NCI-H23, 0.828 µM (active); in the assay with IGROV-1, 0.622 µM (active); with HL-60, 0.514 µM (active); with HCT-116 it was 0.544 µM (active). For the same molecule, the GI50 was 0.437 µM (active) with HT-29; 2.12 µM (inactive) in the assay with TK-10; 0.302 µM (active) in the assay with MOLT-4; 1.55 µM (inactive) in the assay on OVCAR-3; 1.51 µM (inactive) in the assay on SK-OV-3; 4.32 µM (inactive) in the assay with CAKI-1. For the same molecule, the GI50 in the assay on LOX IMVI was 0.482 µM (active); in the assay with A549, 0.537 µM (active); in the assay with UACC-62 it was 2.75 µM (inactive); with HOP-62, 5.56 µM (inactive); in the assay with UO-31, 1.57 µM (inactive); in the assay with OVCAR-4, 0.627 µM (active). Moreover, the GI50 in the assay on 786-0 was 0.445 µM (active).
Turning to `CCOC(=O)/C(=C\NC(C)(C)C)c1nc2ccccc2[nH]1`, the GI50 was 16.4 µM (inactive) with SK-MEL-28; 25.1 µM (inactive) with A498; 17.7 µM (inactive) with NCI-H23; 22 µM (inactive) with IGROV-1; 13.2 µM (inactive) with HL-60; 29.5 µM (inactive) in the assay with HCT-116. Also, the GI50 in the assay on HT-29 was 17.9 µM (inactive); in the assay on TK-10, 14 µM (inactive); in the assay on OVCAR-3, 17.5 µM (inactive); with SK-OV-3, 30.1 µM (inactive); in the assay on CAKI-1, 29.2 µM (inactive); in the assay with LOX IMVI, 21.9 µM (inactive). The GI50 in the assay on A549 is 29.4 µM (inactive); with UACC-62, 16.3 µM (inactive); in the assay with HOP-62, 22.4 µM (inactive); with UO-31, 0.466 µM (active); with OVCAR-4, 24.5 µM (inactive); in the assay with 786-0, 27.1 µM (inactive).
Take `C=CCN1CCN([C@H](c2ccc(C(=O)N(CC)CC)cc2)c2cccc(OC)c2)CC1`: the GI50 in the assay on SK-MEL-28, in the assay with A498, in the assay with NCI-H23, in the assay with IGROV-1, with HL-60 and in the assay on HCT-116 was > 25 µM (inactive) throughout. Besides, the GI50 in the assay on HT-29, with MOLT-4, in the assay on OVCAR-3, in the assay with SK-OV-3, in the assay with CAKI-1 and in the assay on A549 was > 25 µM (inactive) each time. The GI50 in the assay with UACC-62, with HOP-62, in the assay with UO-31, with OVCAR-4 and in the assay with 786-0 was > 25 µM (inactive) in each case.
Regarding `COC(=O)C1CC(OC(C)=O)C=C2C(=O)CCC21` (stereo unspecified), the GI50 with SK-MEL-28 was 17.1 µM (inactive); in the assay on A498, 37.9 µM (inactive); with IGROV-1, 27.2 µM (inactive); in the assay with HL-60 it was 16.1 µM (inactive); in the assay on HCC 2998, 34.2 µM (inactive); with HCT-116, 16.3 µM (inactive). Besides, the GI50 in the assay with TK-10 was 29.4 µM (inactive); with MOLT-4, 14.6 µM (inactive); with OVCAR-3 it was 13.9 µM (inactive); in the assay on SK-OV-3, 27.1 µM (inactive); with CAKI-1, 27 µM (inactive); with A549, 37.2 µM (inactive). Besides, the GI50 in the assay on UACC-62 is 19.3 µM (inactive); in the assay with HOP-62 it was 25.4 µM (inactive); in the assay on UO-31, 27.2 µM (inactive); in the assay with OVCAR-4, 19 µM (inactive); in the assay with 786-0, 18.5 µM (inactive).
For the molecule `CCc1ccc2c(c1)N(CC(C)CN(C)C)c1ccccc1S2` (stereo unspecified) [ETYMEMAZINE HYDROCHLORIDE], the GI50 in the assay with SK-MEL-28 was 2.21 µM (inactive); in the assay with A498, 7.38 µM (inactive); in the assay with NCI-H23 it was 7.64 µM (inactive); with IGROV-1, 4.98 µM (inactive); with HL-60, 2.65 µM (inactive); in the assay with HCT-116, 3.65 µM (inactive). The GI50 is 3.12 µM (inactive) in the assay with HT-29; 4.81 µM (inactive) in the assay with TK-10; 0.736 µM (active) in the assay on MOLT-4; 4.88 µM (inactive) with OVCAR-3; 6.53 µM (inactive) with SK-OV-3; 5.06 µM (inactive) with CAKI-1. Besides, the GI50 is 3.54 µM (inactive) in the assay on LOX IMVI; 8.39 µM (inactive) in the assay on A549; 5.31 µM (inactive) with UACC-62; 6.38 µM (inactive) in the assay with HOP-62; 2.73 µM (inactive) in the assay with UO-31; 5.16 µM (inactive) in the assay on OVCAR-4. Further, in the assay with 786-0, the GI50 is 4.7 µM (inactive).
